Source: patent publication US20230312524A1, “ALPHA1A-ADRENERGIC RECEPTOR AGONISTS AND METHODS OF USE” (CuraSen Therapeutics, Inc., priority 2020, published 2023)
Where a name gives a salt, the structure may show the parent alone. Read-outs that look alike come from different tables or passages of the source.

Assays:
α1A-adrenergic receptor [1] = target: T1, α1A-adrenergic receptor (Homo sapiens, UniProt P35348); settings: as compared to noradrenaline; InsPs accumulation assay; Blue et al., Table 1; cited from earlier work
T1 sequence (P35348 1-466): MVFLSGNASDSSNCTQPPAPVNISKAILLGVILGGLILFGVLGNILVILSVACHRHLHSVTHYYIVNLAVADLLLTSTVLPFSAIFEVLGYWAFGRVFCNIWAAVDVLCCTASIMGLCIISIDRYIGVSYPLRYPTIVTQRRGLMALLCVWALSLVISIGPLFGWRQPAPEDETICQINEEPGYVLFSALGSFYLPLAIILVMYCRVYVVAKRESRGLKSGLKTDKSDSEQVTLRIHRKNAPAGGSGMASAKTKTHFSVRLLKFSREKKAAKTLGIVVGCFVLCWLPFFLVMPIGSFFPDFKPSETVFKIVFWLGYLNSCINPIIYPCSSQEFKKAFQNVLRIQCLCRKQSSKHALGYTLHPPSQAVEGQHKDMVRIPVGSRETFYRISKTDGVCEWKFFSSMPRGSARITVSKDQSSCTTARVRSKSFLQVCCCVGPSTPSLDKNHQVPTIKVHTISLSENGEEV

α1A-adrenergic receptor [2] = target: T1, α1A-adrenergic receptor; settings: as compared to noradrenaline; FLIPR assay; Blue et al., Table 1; cited from earlier work
α1A-ARS = target: T2, α1A-ARS (Homo sapiens, UniProt P35348); assay: Calcium flux assay (Calcium 6 dye) in cells expressing an α1-AR; type: cell-based; settings: for Emax: read-out: Average Emax; for EC50: mean of at least three experiments, read-out: Average PEC50
T2 sequence (P35348 1-466): T1 sequence (P35348 1-466)
From the text: Calcium flux experimental design: alpha-1 adrenergic receptors (α1-ARs) couple to Gq proteins, which results in downstream activation of phospholipase C and release of calcium from intracellular stores. Intracellular calcium increase upon α1-AR activation can be detected by Calcium 6 dye.
Cell preparation: cells expressing an α1-AR were washed in warmed phosphate-buffered saline to remove medium and harvested using versene (Caisson Labs, catalog #EDL01).
Media was removed from cells by tapping plates upside-down on absorbent wipes, followed by 15 second upside-down 50×g centrifugation, again on absorbent wipes. 12 μL cell dye solution was added to cells using a reagent dispenser (Integra viaFILL) and cells were incubated for 90 minutes at 37° C., 5% CO2.
Compound preparation: candidate alpha-adrenergic compounds, dissolved to 10 mM in DMSO, were diluted in_assay buffer (HBSS/H-EPES containing 2 mM CaCl2 and 2 mM probenecid sodium salt). […] On all assay plates, vehicle (DMSO) and positive control (10 μM epinephrine) conditions were included on the plate, as well as a dose-response curve of epinephrine. […] 384 well compound plates were centrifuged briefly at 250×g, sealed (Axygen PCR-SP) and incubated at 37° C. until the 90 minute cell dye incubation was complete.
Calcium 6 stained cells and 384 well compound plates were loaded onto the Flexstation and incubated on the machine for 5 minutes before initiating the assay.
For each assay well, baseline Calcium 6 fluorescence was detected for 18 seconds prior to 12 μL compound addition at 12 μL per second. Changes in Calcium 6 fluorescence were detected for a further 22 seconds, for a total read time of 40 seconds. All detection was performed with medium gain sensitivity, bottom read, with 6 flashes per read.
Data analysis: for calcium flux, analysis of maximum change from baseline over the 40-second read time was determined using Softmax Pro and data was exported as raw text files. Potency estimates (EC50) were derived from dose response curves (maximum change from baseline versus the log concentration of test compound) fit by four-parameter nonlinear regression using Graphpad Prism. Efficacy was determined by comparing the magnitude of the test compound signal window (fitted curve max−min) with the signal window of the full agonist control, epinephrine. […] All experiments were repeated a minimum of three times, with the average (mean) potency and maximum effect relative to the within-plate full agonist dose-response comparator reported.

[3] = calcium flux, α1A-AR, maximum effect relative to full agonist epinephrine

| Emax (α1A-ARS; [3]) [%] | EC50 (α1A-ARS; calcium flux, α1A-AR) [nM] | SMILES | intrinsic activity (α1A-adrenergic receptor [1]) | intrinsic activity (α1A-adrenergic receptor [2]) | Emax (α1A-ARS) [%] |
| --- | --- | --- | --- | --- | --- |
| < 20 | > 1000 | Clc1ccc(CC2=NCCN2)c(-c2cccnn2)c1 [Compound 33] |  |  |  |
| < 20 | > 1000 | Clc1cc(CC2=NCCN2)ccc1-c1ncco1 [Compound 3] |  |  |  |
| 21 to 60 | > 1000 | Clc1ccc(CC2=NCCN2)c(-c2ccncn2)c1 [Compound 34] |  |  |  |
| < 20 | > 1000 | Clc1ccc(CC2=NCCN2)c(CC2CCOCC2)c1 [Compound 119] |  |  |  |
| < 20 | > 1000 | Cc1c(CC2=NCCN2)ccc(Cl)c1-c1ccnn1C [Compound 15] |  |  |  |
| < 20 | 10 to 977 | Cc1c(CC2=NCCN2)ccc(-c2ncco2)c1Cl [Compound 12] |  |  |  |
| > 61 | 10 to 977 | FC(F)(F)c1ccc(CC2=NCCN2)c(-c2ccccc2)c1 [Compound 75] |  |  |  |
| > 61 | > 1000 | Clc1ccc(CC2=NCCN2)c(-c2cccnc2)c1 [Compound 19] |  |  |  |
| > 61 | 10 to 977 | Clc1ccc(CC2=NCCN2)c(-c2ncccn2)c1 [Compound 32] |  |  |  |
| 21 to 60 | 10 to 977 | Cc1c(CC2=NCCN2)cccc1-n1cccn1 [Compound 22] |  |  |  |

Continued, compound first:

| SMILES | Emax (α1A-ARS; [3]) [%] | EC50 (α1A-ARS; calcium flux, α1A-AR) [nM] | intrinsic activity (α1A-adrenergic receptor [1]) | intrinsic activity (α1A-adrenergic receptor [2]) | Emax (α1A-ARS) [%] |
| --- | --- | --- | --- | --- | --- |
| Cc1c(OCC2=NCCN2)ccc(Cl)c1NS(C)(=O)=O [RO 115-1240 (dabuzalgron) HCl salt, dabuzalgron] |  |  | 0.27 | 0.51 |  |
| Cc1c(OCC2=NCCN2)ccc(Cl)c1NS(C)(=O)=O [RO 115-1240 (dabuzalgron) free base, dabuzalgron] |  |  | 0.31 |  |  |
| Cc1c(CC2=NCCN2)ccc2cc[nH]c12 [Compound 61] |  | 10 to 977 |  |  | < 20 |
| CCc1cc(S(=O)(=O)C(F)F)ccc1CC1=NCCN1 [Compound 112] | > 61 | 10 to 977 |  |  |  |
| Cc1c(CC2=NCCN2)ccc2occc12 [Compound 54] |  | 10 to 977 |  |  | 21 to 60 |
| Clc1cc2occc2cc1CC1=NCCN1 [Compound 53] |  | < 9.77 |  |  | > 61 |
| CC(C)(C)c1cc(Cl)ccc1CC1=NCCN1 [Compound 41] |  | > 1000 |  |  | < 20 |
| FC(F)(F)c1ccc(CC2=NCCN2)c(C2CCCCC2)c1 [Compound 96] | 21 to 60 | > 1000 |  |  |  |
| CN(CC(F)(F)F)c1cc(C(F)(F)F)ccc1CC1=NCCN1 [Compound 97] | < 20 | > 1000 |  |  |  |
| Clc1c(CC2=NCCN2)ccc2occc12 [Compound 52] |  | 10 to 977 |  |  | < 20 |
| FC(F)Oc1cc(Cl)ccc1CC1=NCCN1 [Compound 114] |  | 10 to 977 |  |  | 21 to 60 |
| FC(F)(F)c1ccccc1CC1=NCCN1 [Compound 154] |  | > 1000 |  |  | 21 to 60 |
| Clc1cn(C2CC2)c2cc(CC3=NCCN3)ccc12 [Compound 63] |  | 10 to 977 |  |  | 21 to 60 |
| CC(F)(F)c1ccc(CC2=NCCN2)c(Cl)c1 [Compound 157] |  | 10 to 977 |  |  | > 61 |
